Experimental data published in patent US20050020565A1, “CCK-1 receptor modulators” (priority 2003, published 2005).

Each compound was assayed against T1, CCK-1 receptor (Homo sapiens, UniProt P32238) (assay: CCK-1 receptor radioligand binding assay ([125I]-BH-CCK-8S displacement, membranes of stably transfected CHO-K1 cells)). Settings: membranes of CHO-K1 cells stably transfected with CCK-1 receptor, 0.3 μM PD-134,308 present.
T1 construct: expressed in transfected cells; membranes
T1 sequence (P32238 1-428): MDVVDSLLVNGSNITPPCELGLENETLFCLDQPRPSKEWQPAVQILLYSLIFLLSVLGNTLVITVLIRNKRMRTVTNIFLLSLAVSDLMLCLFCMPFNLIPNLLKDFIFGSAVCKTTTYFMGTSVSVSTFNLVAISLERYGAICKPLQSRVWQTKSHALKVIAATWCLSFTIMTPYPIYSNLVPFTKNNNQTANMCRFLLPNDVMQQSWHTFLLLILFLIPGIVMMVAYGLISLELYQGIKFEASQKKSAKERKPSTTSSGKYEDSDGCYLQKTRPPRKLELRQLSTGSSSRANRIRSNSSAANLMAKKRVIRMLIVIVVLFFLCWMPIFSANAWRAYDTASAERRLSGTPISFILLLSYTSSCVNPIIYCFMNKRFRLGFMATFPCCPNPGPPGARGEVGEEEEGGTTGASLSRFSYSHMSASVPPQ
Protocol: CHO-K1 cells that had undergone-stable transfection with the CCK-1 receptor were grown in DMEM supplemented with L-glutamine (2 mM), penicillin (50 units/mL) and streptomycin (50 μg/mL). Cells were cultured under continuous G418 selection (2 mM) and were harvested using a rubber cell scraper. CHO-K1 cells were sub-cultured a maximum of ten times before being reseeded from the original stocks.
Membranes were prepared from the stably transfected CHO-K1 cells. Frozen cell pellets (−40° C.) were thawed in 14 mL of buffer A (10 mM HEPES, 130 mM NaCl, 4.7 mM KCl, 5 mM MgCl, 1 mM EGTA and 15.4 mg/100 mL bacitracin at pH 7.2), adapted from Harper et al. (Br. J. Pharmacol. (1996) 118, pp 1717-1726). The thawed pellets were homogenized using a Polytron PT-10 (7×1 s). The homogenates were centrifuged for 5 min at 1500 rpm (600×g), and the resulting pellets were discarded. The supernatants were re-centrifuged in order to collect the receptor-membrane pellets (25 min 15,000 rpm; 39,800×g), which were re-suspended in buffer A.
All assays were conducted in 96-well plates (GF/B millipore filter plates) using buffer A, with 0.3 μM PD-134,308, for the dilutions. The CCK-2 receptor ligand was included to eliminate the contribution of this receptor subtype to the binding. For the optimal cell number determination experiments 20 pM [1251]-BH—CCK-8S (50 μL 60 pM solution) was incubated with a range of cell concentrations (2.5×105 to 12.5×10^5 cells/well) in a total volume of 150 μL. Total binding of [1251]-BH—CCK-8S was determined in the presence of 15 μL of buffer A. Non-specific binding of [1 251]-BH—CCK-8S was determined in the presence of 15 μL of 100 μM 2-naphthalenesulphonyl L-aspartyl-(2-phenethyl)amide (2-NAP: see R. A. Hull et al., Br. J. Pharmacol. (1993) 108, pp 734-740), a CCK-1 receptor selective antagonist that is structurally unrelated to the radioligand [1251]-BH—CCK-8S. The assay preparation was incubated for 1 h at 21±3° C., and then the assay was terminated upon rapid filtration of the preparation under reduced pressure. The loaded filters were washed three times using undiluted PBS (100 μL), and then the residues were transferred to 5 mL scintillation tubes. Bound radioactivity was determined using a gamma counter (count time=1 min). From these experiments a cell concentration of 1 pellet in 40 mL of buffer (2.5×10^6 cells/mL) was chosen for use in other assays (below). To validate the radioligand concentration and incubation time for the assay, saturation and kinetic binding studies were also conducted (see M. F. Morton, The Pharmacological Characterization of Cholecystokinin Receptors in the Human Gastrointestinal Tract. PhD Thesis, University of London, 2000). The affinity of novel compounds was estimated by incubating membrane preparations with 15 μL of competing ligand (0.1 pM-1 mM) for 60 min at 21±3° C. The assay was then terminated according to the procedure outlined above.
The pKi values were determined using the equation of Cheng and Prusoff (Biochem. Pharmacol. (1973) 22, pp 3099-3108): [formula]
To circumvent problems associated with computer-assisted data analysis of compounds with low affinity, the data obtained in the current study were weighted according to a method described by Morton (2000). In brief, 100% and 0% specific binding were defined independently using total binding and binding obtained in the presence of a high concentration of the reference antagonist, 2-NAP.

| Compound | Ki [nM] |
| --- | --- |
| COc1ccc(-n2nc(CC(C(=O)O)c3cccc(Cl)c3)cc2-c2ccc(Cl)cc2)cc1 (stereo not shown) [Example 37] | 20 |
| Cc1ccc(-c2cc(CC(C(=O)O)c3cccc(C)c3)nn2-c2ccc(Cl)cc2)cc1 (stereo not shown) [Example 155] | 10 |
| Cc1ccc(-n2nc(-c3cccc(N(C)C)c3)cc2CC(C(=O)O)c2cccc(C)c2)cc1 (stereo not shown) [Example 90] | 794 |
| Cc1ccc(-c2cc(CC(C(=O)O)c3cccc4sccc34)nn2-c2ccc(Cl)c(Cl)c2)cc1 (stereo not shown) [Example 190] | 10 |
| COc1ccc(-n2nc(CC(C(=O)O)c3cccc4ccccc34)cc2-c2ccc(Cl)c(Cl)c2)cc1 (stereo not shown) [Example 210] | 12.6 |
| Cc1ccc(-c2cc(CC(C(=O)O)c3cccc(Cl)c3Cl)nn2-c2ccc(Cl)c(Cl)c2)cc1 (stereo not shown) [Example 46] | 20 |
| Cc1cccc(C(Cc2cc(-c3ccc4ccccc4c3)[nH]n2)C(=O)O)c1 (stereo not shown) [Example 47] | 200 |
| COc1ccc(-n2nc(CC(C(=O)NC3CCCCC3O)c3cccc(C)c3)cc2-c2ccc(C)cc2)cc1 (stereo not shown) [Example 64] | 50.1 |
| Cc1ccc(-c2cc(CC(C(=O)O)c3cccc(C(F)(F)F)c3F)nn2-c2ccc(Cl)c(Cl)c2)cc1 (stereo not shown) [Example 21] | 158 |
| O=C(O)/C(=C/c1cc(-c2ccc3c(c2)OCO3)n(-c2cc(Cl)ccc2Cl)n1)c1cccc(Cl)c1 [Example 123] | 251 |
| COc1ccc(-n2nc(CC(C(=O)O)c3cccc(Cl)c3)cc2-c2ccc(Oc3ccccc3)cc2)cc1 (stereo not shown) [Example 246] | 39.8 |
| Cc1ccc(-c2cc(CC(C(=O)O)c3ccc4c(c3)OCO4)nn2-c2ccc(Cl)c(Cl)c2)cc1 (stereo not shown) [Example 189] | 39.8 |
| Cc1ccc(-n2nc(CC(C(=O)O)c3cccc(C)c3)cc2-c2ccc(N3CCCC3=O)cc2)cc1 (stereo not shown) [Example 104] | 39.8 |
| COc1ccc(-n2nc(CC(C(=O)O)c3cccc4sccc34)cc2-c2ccc(C)cc2)cc1 (stereo not shown) [Example 153] | 15.8 |
| COc1ccc(-n2nc(CC(C(=O)O)c3cccc(OC)c3)cc2-c2ccc(Cl)c(Cl)c2)cc1 (stereo not shown) [Example 211] | 12.6 |
| COc1ccc(-n2nc(/C=C(/C(=O)O)c3cccc(C)c3)cc2-c2ccc(Cl)c(Cl)c2)cc1 [Example 75] | 79.4 |
| COc1cc(-c2cc(CC(C(=O)O)c3cccc(C)c3)nn2-c2ccc(C)cc2)ccc1C (stereo not shown) [Example 60] | 5.01 |
| COc1ccc(-n2nc(C[C@H](C(=O)O)c3cccc4ccccc34)cc2-c2ccc(C)cc2)cc1 [Example 152] | 12.6 |

| Compound | Ki [nM] |
| --- | --- |
| COc1ccc(-n2nc(CC(C(=O)O)c3coc4ccccc34)cc2-c2ccc(Cl)c(Cl)c2)cc1 (stereo not shown) [Example 261] | 12.6 |
| COc1ccc(-n2nc(C[C@@H](C(=O)O)c3cccc(C)c3)cc2-c2ccc(Cl)c(Cl)c2)cc1 [Example 3] | 251 |
| COc1ccc(-n2nc(CC(C(=O)O)c3ccccc3C(F)(F)F)cc2-c2ccc(Cl)c(Cl)c2)cc1 (stereo not shown) [Example 19] | 31.6 |
| COc1ccc(-n2nc(CC(C(=O)O)c3cccnc3)cc2-c2ccc(Cl)cc2)cc1 (stereo not shown) [Example 208] | 3160 |
| Cc1cccc(C(Cc2cc(-c3ccc(Cl)c(Cl)c3)n(-c3ccc(C(C)(C)C)cc3)n2)C(=O)O)c1 (stereo not shown) [Example 275] | 20 |
| O=C(O)/C(=C\c1cc(-c2ccc(Cl)c(Cl)c2)n(-c2ccccn2)n1)c1cccc(Cl)c1 [Example 110] | 12.6 |
| COc1ccc(-n2nc(CC(C(=O)O)c3cccc(Cl)c3)cc2-c2ccc3c(c2)OCO3)cc1 (stereo not shown) [Example 221] | 15.8 |
| COc1ccc(-n2nc(/C=C(\C(=O)O)c3cccc(C)c3)cc2-c2ccc(Cl)c(Cl)c2)cc1 [Example 120] | 10 |
| COc1ccc(-n2nc(CC(C(=O)O)c3coc4ccccc34)cc2-c2ccc3c(c2)OCO3)cc1 (stereo not shown) [Example 262] | 12.6 |
| Cc1cccc(C(Cc2cc(-c3ccc4c(c3)OCO4)n(-c3ccc(Cl)cc3Cl)n2)C(=O)O)c1 (stereo not shown) [Example 276] | 6.31 |
| Cc1cccc(C(Cc2cc(-c3ccc4ccccc4c3)nn2Cc2ccccc2)C(=O)O)c1 (stereo not shown) [Example 83] | 63.1 |
| Cc1cccc(C(Cc2cc(-c3ccc4ccccc4c3)n(-c3ccc(C(F)(F)F)cn3)n2)C(=O)O)c1 (stereo not shown) [Example 80] | 12.6 |
| Cc1ccc(-c2cc(CC(C(=O)O)c3cccc4ccccc34)nn2Cc2ccccc2)cc1 (stereo not shown) [Example 195] | 10 |
| Cc1cccc(C(Cc2cc(-c3ccc(N(C)C)cc3)n(-c3ccc(OC(F)(F)F)cc3)n2)C(=O)O)c1 (stereo not shown) [Example 287] | 20 |
| Cc1cccc(C(Cc2cc(-c3ccc(Br)c(C)c3)n(C3CCCCC3)n2)C(=O)O)c1 (stereo not shown) [Example 308] | 63.1 |
| Cc1ccc(-c2cc(CC(C(=O)O)c3cccc(I)c3)nn2-c2ccc(Cl)c(Cl)c2)cc1 (stereo not shown) [Example 24] | 20 |
| COc1ccc(-n2nc(/C=C(\C(=O)O)c3cccc(Cl)c3)cc2-c2ccc(Cl)c(Cl)c2)cc1 [Example 115] | 6.31 |

Further compounds by falling Ki, results first:

| Ki [nM] | Compound |
| --- | --- |
| 1260 | Cc1cccc(C(Cc2cc(-c3ccc4c(c3)OCO4)nn2CC2CCCCC2)C(=O)O)c1 (stereo not shown) [Example 82] |
| 1000 | COc1ccc(-c2cc(C[C@@H](C(=O)O)c3cccc(OC)c3)nn2-c2ccc(OC)cc2)cc1 [Example 31] |
| 501 | Cc1cccc(C(Cc2cc(-c3ccc(OCc4ccccc4)cc3)n(-c3ccc(OC(F)(F)F)cc3)n2)C(=O)O)c1 (stereo not shown) [Example 58] |
| 251 | Cc1cccc([C@@H](Cc2cc(-c3ccc4ccccc4c3)n(-c3ccccn3)n2)C(=O)O)c1 [Example 93] |
| 63.1 | COc1ccc(-c2cc(C[C@H](C(=O)O)c3cccc(OC)c3)nn2-c2ccc(OC)cc2)cc1 [Example 32] |
| 39.8 | COc1ccc(-n2nc(C[C@H](C(=O)O)c3cccc4ccccc34)cc2-c2ccc3c(c2)OCO3)cc1 [Example 29] |
| 39.8 | COc1ccc(-n2nc(CC(C(=O)O)c3cccc(F)c3F)cc2-c2ccc(Cl)c(Cl)c2)cc1 (stereo not shown) [Example 18] |
| 31.6 | Cc1ccc(-c2cc(CC(CSc3ncn[nH]3)c3cccc(C)c3)nn2-c2ccc(C)cc2)cc1 (stereo not shown) [Example 335] |
| 31.6 | COc1ccc(-n2nc(C[C@H](CS(=O)(=O)c3ncn[nH]3)c3cccc(C)c3)cc2-c2ccc(Cl)c(Cl)c2)cc1 [Example 138] |
| 20 | COc1ccc(-n2nc(CC(C(=O)N(C)C)c3cccc(C)c3)cc2-c2ccc(C)cc2)cc1 (stereo not shown) [Example 66] |
| 15.8 | Cc1ccc(-c2cc(CC(C(=O)O)c3cccc4ccccc34)nn2-c2ccc(Cl)c(Cl)c2)cc1 (stereo not shown) [Example 181] |
| 12.6 | COc1cccc(C(Cc2cc(-c3ccc(C)cc3)n(-c3ccc(Cl)cc3)n2)C(=O)O)c1 (stereo not shown) [Example 157] |
| 12.6 | Cc1ccc(-n2nc(CC(C(=O)O)c3cccc(C)c3)cc2-c2cccc(N(C)C)c2)cc1 (stereo not shown) [Example 91] |
| 10 | Cc1cccc(C(Cc2cc(-c3ccc4ccccc4c3)n(-c3ccccn3)n2)C(=O)O)c1 (stereo not shown) [Example 52] |
| 7.94 | COc1cccc(C(Cc2cc(-c3ccc(C)cc3)n(-c3ccc(C)cc3)n2)C(=O)O)c1 (stereo not shown) [Example 170] |
| 6.31 | COc1cccc(C(Cc2cc(-c3ccc(C)cc3)n(-c3ccc(Cl)c(Cl)c3)n2)C(=O)O)c1 (stereo not shown) [Example 42] |
| 3.16 | Cc1ccc(-n2nc(CC(C(=O)O)c3cccc(C)c3)cc2-c2ccc(N(C)C)cc2)cc1 (stereo not shown) [Example 59] |
